Patent US11197868B2, “Prevention of preterm birth (PTB) by inhibition of FKBP51” (UNIVERSITY OF SOUTH FLORIDA, priority 2017, dated 2021)

Test system: FKBP51
Assay: FKBP51 protein expression in primary term decidual cell cultures by immunoblotting
Assay type: cell-based
Details: 24 hours
Experimental: This example describes an analysis of FKBP51 expression in primary term decidual cells (DCs) induced by dexamethasone (DEX) (0.1 μM) or 15dPGJ2 (5 or 20 μM) or DEX+15dPGJ2 (0.1 μM+5 or +20 μM).
Glucocorticoids (e.g. dexamethasone (DEX), medroxyprogesterone acetate) are primary inducers of FKBP51 mRNA and protein expression in decidual cells (DCs). It was determined that both restrained stress-induced preterm birth and fetal growth restriction are blocked in FKBP51 knockout mice compared to WT mice. To determine the potential therapeutic impact of 15-deoxy-Δ12,14-prostaglandin J2 (15dPGJ2) on regulation of dexamethasone-induced FKBP51, primary term DC cultures (n=1) were induced by DEX (0.1 μM), 15dPGJ2 (5 or 20 μM), or DEX+15dPGJ2 (0.1 μM+5 or +20 μM) for 24 hours, and FKBP51 protein levels were then analyzed by immunoblotting, as shown in FIG. 15A.

| Compound | increase of FKBP51 expression compared to control (DEX 0.1 μM alone, primary term DC cultures (n=1)) [%] | decrease of FKBP51 expression compared to control (5 μm 15dPGJ2 alone, term DC cultures (n=1)) [%] | reduction of DEX-induced FKBP51 expression (5 μm 15dPGJ2 combined with DEX 0.1 μM, term DC cultures (n=1)) [%] | decrease of FKBP51 expression compared to control (20 μm 15dPGJ2 alone, term DC cultures (n=1)) [%] | effect on DEX-induced FKBP51 expression (20 μm 15dPGJ2 combined with DEX 0.1 μM, term DC cultures (n=1)) |
| --- | --- | --- | --- | --- | --- |
| C[C@@H]1C[C@H]2[C@@H]3CCC4=CC(=O)C=C[C@]4(C)[C@@]3(F)[C@@H](O)C[C@]2(C)[C@@]1(O)C(=O)CO [DEX, dexamethasone] | 60 |  |  |  |  |
| CCCCC/C=C/C=C1/C(=O)C=C[C@@H]1C/C=C\CCCC(=O)O [15dPGJ2, 15-deoxy-Δ12,14-prostaglandin J2] |  | 10 | 12 | 18 | completely blocking DEX-induced FKBP51 expression |
